According to patent US20250352520A1, “USE OF DEXPRAMIPEXOLE FOR THE TREATMENT OF EOSINOPHILIC COPD” (Areteia Therapeutics, Inc., priority 2024, published 2025):
Like-named read-outs stand apart in the source and are kept apart here.

Settings: Week 4

## CCCN[C@@H]1CCc2nc(N)sc2C1 [Dexpramipexole, (6R)-2-amino-4,5,6,7-tetrahydro-6-(propylamino)benzothiazole]
<50% AEC reduction at Week 16
  Pre-BD FEF25-75 % change from baseline, Max: −9%
  Pre-BD FEF25-75 % change from baseline, Mean ± SD: −19.8 ± 9.58%
  Pre-BD FEF25-75 % change from baseline, Median: −19.3%
  Pre-BD FEF25-75 % change from baseline, Min: −32%
  Pre-BD FEF25-75 % change from baseline, Q1: −27%
  Pre-BD FEF25-75 % change from baseline, Q3: −13%
  Pre-BD FEF25-75 Observed, Max: 950 mL/s
  Pre-BD FEF25-75 Observed, Mean ± SD: 507.5 ± 333.30 mL/s
  Pre-BD FEF25-75 Observed, Median: 440.0 mL/s
  Pre-BD FEF25-75 Observed, Min: 200 mL/s
  Pre-BD FEF25-75 Observed, Q1: 255 mL/s
  Pre-BD FEF25-75 Observed, Q3: 760 mL/s
  Pre-BD FEF25-75 change from baseline, Max: -30 mL/s
  Pre-BD FEF25-75 change from baseline, Mean ± SD: -167.5 ± 191.03 mL/s
  Pre-BD FEF25-75 change from baseline, Median: -100.0 mL/s
  Pre-BD FEF25-75 change from baseline, Min: -440 mL/s
  Pre-BD FEF25-75 change from baseline, Q1: -300 mL/s
  Pre-BD FEF25-75 change from baseline, Q3: -35 mL/s
  Pre-BD FEV1 % change from baseline, Max: −1%
  Pre-BD FEV1 % change from baseline, Mean ± SD: −16.4 ± 15.81%
  Pre-BD FEV1 % change from baseline, Median: −13.3%
  Pre-BD FEV1 % change from baseline, Min: −37%
  Pre-BD FEV1 % change from baseline, Q1: −28%
  Pre-BD FEV1 % change from baseline, Q3: −4%
  Pre-BD FEV1 Observed, Max: 1680 mL
  Pre-BD FEV1 Observed, Mean ± SD: 1260.0 ± 511.53 mL
  Pre-BD FEV1 Observed, Median: 1420.0 mL
  Pre-BD FEV1 Observed, Min: 520 mL
  Pre-BD FEV1 Observed, Q1: 935 mL
  Pre-BD FEV1 Observed, Q3: 1585 mL
  Pre-BD FEV1 change from baseline, Max: -20 mL
  Pre-BD FEV1 change from baseline, Mean ± SD: -212.5 ± 173.47 mL
  Pre-BD FEV1 change from baseline, Median: -215.0 mL
  Pre-BD FEV1 change from baseline, Min: -400 mL
  Pre-BD FEV1 change from baseline, Q1: -355 mL
  Pre-BD FEV1 change from baseline, Q3: -70 mL
  Pre-BD FVC % change from baseline, Max: 0%
  Pre-BD FVC % change from baseline, Mean ± SD: −9.0 ± 13.97%
  Pre-BD FVC % change from baseline, Median: −2.9%
  Pre-BD FVC % change from baseline, Min: −30%
  Pre-BD FVC % change from baseline, Q1: −17%
  Pre-BD FVC % change from baseline, Q3: −1%
  Pre-BD FVC Observed, Max: 3480 mL
  Pre-BD FVC Observed, Mean ± SD: 2755.0 ± 729.41 mL
  Pre-BD FVC Observed, Median: 2875.0 mL
  Pre-BD FVC Observed, Min: 1790 mL
  Pre-BD FVC Observed, Q1: 2215 mL
  Pre-BD FVC Observed, Q3: 3295 mL
  Pre-BD FVC change from baseline, Max: -10 mL
  Pre-BD FVC change from baseline, Mean ± SD: -240.0 ± 350.90 mL
  Pre-BD FVC change from baseline, Median: -95.0 mL
  Pre-BD FVC change from baseline, Min: -760 mL
  Pre-BD FVC change from baseline, Q1: -450 mL
  Pre-BD FVC change from baseline, Q3: -30 mL
  Pre-BD Peak Flow % change from baseline, Max: 428%
  Pre-BD Peak Flow % change from baseline, Mean ± SD: 90.4 ± 224.72%
  Pre-BD Peak Flow % change from baseline, Median: −20.4%
  Pre-BD Peak Flow % change from baseline, Min: −25%
  Pre-BD Peak Flow % change from baseline, Q1: −24%
  Pre-BD Peak Flow % change from baseline, Q3: 205%
  Pre-BD Peak Flow Observed, Max: 211 L/min
  Pre-BD Peak Flow Observed, Mean ± SD: 167.5 ± 49.57 L/min
  Pre-BD Peak Flow Observed, Median: 180.5 L/min
  Pre-BD Peak Flow Observed, Min: 98 L/min
  Pre-BD Peak Flow Observed, Q1: 133 L/min
  Pre-BD Peak Flow Observed, Q3: 202 L/min
  Pre-BD Peak Flow change from baseline, Max: 171 L/min
  Pre-BD Peak Flow change from baseline, Mean ± SD: 11.0 ± 107.23 L/min
  Pre-BD Peak Flow change from baseline, Median: -35.5 L/min
  Pre-BD Peak Flow change from baseline, Min: -56 L/min
  Pre-BD Peak Flow change from baseline, Q1: -49 L/min
  Pre-BD Peak Flow change from baseline, Q3: 71 L/min
>=50% AEC reduction at Week 16
  Pre-BD FEF25-75 % change from baseline, Max: 41%
  Pre-BD FEF25-75 % change from baseline, Mean ± SD: 11.4 ± 25.76%
  Pre-BD FEF25-75 % change from baseline, Median: −2.2%
  Pre-BD FEF25-75 % change from baseline, Min: −5%
  Pre-BD FEF25-75 % change from baseline, Q1: −5%
  Pre-BD FEF25-75 % change from baseline, Q3: 41%
  Pre-BD FEF25-75 Observed, Max: 1030 mL/s
  Pre-BD FEF25-75 Observed, Mean ± SD: 710.0 ± 446.43 mL/s
  Pre-BD FEF25-75 Observed, Median: 900.0 mL/s
  Pre-BD FEF25-75 Observed, Min: 200 mL/s
  Pre-BD FEF25-75 Observed, Q1: 200 mL/s
  Pre-BD FEF25-75 Observed, Q3: 1030 mL/s
  Pre-BD FEF25-75 change from baseline, Max: 300 mL/s
  Pre-BD FEF25-75 change from baseline, Mean ± SD: 90.0 ± 181.93 mL/s
  Pre-BD FEF25-75 change from baseline, Median: -10.0 mL/s
  Pre-BD FEF25-75 change from baseline, Min: -20 mL/s
  Pre-BD FEF25-75 change from baseline, Q1: -20 mL/s
  Pre-BD FEF25-75 change from baseline, Q3: 300 mL/s
  Pre-BD FEV1 % change from baseline, Max: 62%
  Pre-BD FEV1 % change from baseline, Mean ± SD: 24.8 ± 32.69%
  Pre-BD FEV1 % change from baseline, Median: 9.7%
  Pre-BD FEV1 % change from baseline, Min: 2%
  Pre-BD FEV1 % change from baseline, Q1: 2%
  Pre-BD FEV1 % change from baseline, Q3: 62%
  Pre-BD FEV1 Observed, Max: 2110 mL
  Pre-BD FEV1 Observed, Mean ± SD: 1540.0 ± 678.16 mL
  Pre-BD FEV1 Observed, Median: 1720.0 mL
  Pre-BD FEV1 Observed, Min: 790 mL
  Pre-BD FEV1 Observed, Q1: 790 mL
  Pre-BD FEV1 Observed, Q3: 2110 mL
  Pre-BD FEV1 change from baseline, Max: 810 mL
  Pre-BD FEV1 change from baseline, Mean ± SD: 306.7 ± 436.16 mL
  Pre-BD FEV1 change from baseline, Median: 70.0 mL
  Pre-BD FEV1 change from baseline, Min: 40 mL
  Pre-BD FEV1 change from baseline, Q1: 40 mL
  Pre-BD FEV1 change from baseline, Q3: 810 mL
  Pre-BD FVC % change from baseline, Max: 32%
  Pre-BD FVC % change from baseline, Mean ± SD: 15.7 ± 14.81%
  Pre-BD FVC % change from baseline, Median: 11.4%
  Pre-BD FVC % change from baseline, Min: 3%
  Pre-BD FVC % change from baseline, Q1: 3%
  Pre-BD FVC % change from baseline, Q3: 32%
  Pre-BD FVC Observed, Max: 3330 mL
  Pre-BD FVC Observed, Mean ± SD: 2790.0 ± 497.59 mL
  Pre-BD FVC Observed, Median: 2690.0 mL
  Pre-BD FVC Observed, Min: 2350 mL
  Pre-BD FVC Observed, Q1: 2350 mL
  Pre-BD FVC Observed, Q3: 3330 mL
  Pre-BD FVC change from baseline, Max: 810 mL
  Pre-BD FVC change from baseline, Mean ± SD: 380.0 ± 379.87 mL
  Pre-BD FVC change from baseline, Median: 240.0 mL
  Pre-BD FVC change from baseline, Min: 90 mL
  Pre-BD FVC change from baseline, Q1: 90 mL
  Pre-BD FVC change from baseline, Q3: 810 mL
  Pre-BD Peak Flow % change from baseline, Max: 143%
  Pre-BD Peak Flow % change from baseline, Mean ± SD: 63.4 ± 69.42%
  Pre-BD Peak Flow % change from baseline, Median: 28.2%
  Pre-BD Peak Flow % change from baseline, Min: 18%
  Pre-BD Peak Flow % change from baseline, Q1: 18%
  Pre-BD Peak Flow % change from baseline, Q3: 143%
  Pre-BD Peak Flow Observed, Max: 382 L/min
  Pre-BD Peak Flow Observed, Mean ± SD: 260.7 ± 108.49 L/min
  Pre-BD Peak Flow Observed, Median: 227.0 L/min
  Pre-BD Peak Flow Observed, Min: 173 L/min
  Pre-BD Peak Flow Observed, Q1: 173 L/min
  Pre-BD Peak Flow Observed, Q3: 382 L/min
  Pre-BD Peak Flow change from baseline, Max: 225 L/min
  Pre-BD Peak Flow change from baseline, Mean ± SD: 100.7 ± 108.29 L/min
  Pre-BD Peak Flow change from baseline, Median: 50.0 L/min
  Pre-BD Peak Flow change from baseline, Min: 27 L/min
  Pre-BD Peak Flow change from baseline, Q1: 27 L/min
  Pre-BD Peak Flow change from baseline, Q3: 225 L/min
